From PubChem BioAssay AID248 (DTP/NCI, 2004)
Values joined by “and” are separate entries in the source; they are usually repeats but may differ in a detail not shown here. Equal entries are not always repeated. Inconclusive results and toxic doses are left out.

Test system: L1210 leukemia ip in BDF1 mice, survival T/C
Test: NCI In Vivo Anticancer Drug Screen. Data for tumor model L1210 Leukemia (intraperitoneal) in B6D2F1 (BDF1) mice
Settings: endpoint: mean survival time, higher = longer survival
Method in brief: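 Mice bearing the transplanted tumor received compound or vehicle. Survival of the treated group was divided by that of the vehicle-treated control group to give the ratio.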

[1] = dose: 100.0 mg/kg/injection, schedule: Q01DX001 (ip), vehicle: carboxymethylcellulose (CMC)
[2] = dose: 200.0 mg/kg/injection, schedule: Q01DX001 (ip), vehicle: carboxymethylcellulose (CMC)
[3] = dose: 400.0 mg/kg/injection, schedule: Q01DX001 (ip), vehicle: carboxymethylcellulose (CMC)
[4] = dose: 100.0 mg/kg/injection, schedule: Q04DX003 (ip), vehicle: Klucel (hydroxypropylcellulose) (HPC)
[5] = dose: 200.0 mg/kg/injection, schedule: Q04DX003 (ip), vehicle: Klucel (hydroxypropylcellulose) (HPC)
[6] = dose: 400.0 mg/kg/injection, schedule: Q04DX003 (ip), vehicle: Klucel (hydroxypropylcellulose) (HPC)
[7] = dose: 100.0 mg/kg/injection, schedule: Q04DX003 (ip), vehicle: saline
[8] = dose: 200.0 mg/kg/injection, schedule: Q04DX003 (ip), vehicle: saline
[9] = dose: 100.0 mg/kg/injection, schedule: Q01DX009 (ip), vehicle: saline with Tween-80
[10] = dose: 200.0 mg/kg/injection, schedule: Q01DX009 (ip), vehicle: saline with Tween-80

## CCn1cnc2c(=S)nc[nH]c21
dose: 4.62 mg/kg/injection, schedule: Q01DX Z (ip), vehicle: carboxymethylcellulose (CMC)
  T/C: 98 % of control
dose: 7.5 mg/kg/injection, schedule: Q01DX005 (ip), vehicle: other
  T/C: 106 % of control
dose: 7.5 mg/kg/injection, schedule: Q01DX009 (ip), vehicle: other
  T/C: 102 % of control
dose: 7.5 mg/kg/injection, schedule: Q01DX009 (sc), vehicle: other
  T/C: 124 % of control
dose: 9.25 mg/kg/injection, schedule: Q01DX Z (ip), vehicle: carboxymethylcellulose (CMC)
  T/C: 108 % of control
dose: 9.25 mg/kg/injection, schedule: Q01DX Z (oral), vehicle: carboxymethylcellulose (CMC)
  T/C: 110 % of control
dose: 15.0 mg/kg/injection, schedule: Q01DX005 (ip), vehicle: other
  T/C: 102 % of control
dose: 15.0 mg/kg/injection, schedule: Q01DX009 (ip), vehicle: other
  T/C: 107 % of control
dose: 15.0 mg/kg/injection, schedule: Q01DX009 (oral), vehicle: other
  T/C: 115 % of control
dose: 15.0 mg/kg/injection, schedule: Q01DX009 (sc), vehicle: other
  T/C: 103 % of control
dose: 18.5 mg/kg/injection, schedule: Q01DX Z (ip), vehicle: carboxymethylcellulose (CMC)
  T/C: 108 % of control
dose: 18.5 mg/kg/injection, schedule: Q01DX Z (oral), vehicle: carboxymethylcellulose (CMC)
  T/C: 110 % of control
dose: 30.0 mg/kg/injection, schedule: Q01DX005 (ip), vehicle: other
  T/C: 116 % of control
dose: 30.0 mg/kg/injection, schedule: Q01DX009 (ip), vehicle: other
  T/C: 117 % of control
dose: 30.0 mg/kg/injection, schedule: Q01DX009 (oral), vehicle: other
  T/C: 115 % of control
dose: 30.0 mg/kg/injection, schedule: Q01DX009 (sc), vehicle: other
  T/C: 119 % of control
dose: 30.0 mg/kg/injection, schedule: Q## X024 (ip), vehicle: other
  T/C: 102 % of control
dose: 31.3 mg/kg/injection, schedule: Q01DX009 (ip), vehicle: saline
  T/C: 100 % of control and 104 % of control
dose: 31.3 mg/kg/injection, schedule: Q01DX010 (ip), vehicle: saline
  T/C: 92 % of control and 95 % of control
dose: 37.0 mg/kg/injection, schedule: Q01DX Z (ip), vehicle: carboxymethylcellulose (CMC)
  T/C: 112 % of control
dose: 37.0 mg/kg/injection, schedule: Q01DX Z (oral), vehicle: carboxymethylcellulose (CMC)
  T/C: 120 % of control
dose: 37.5 mg/kg/injection, schedule: Q## X003 (ip), vehicle: other
  T/C: 100 % of control
dose: 60.0 mg/kg/injection, schedule: Q01DX005 (ip), vehicle: other
  T/C: 123 % of control
dose: 60.0 mg/kg/injection, schedule: Q## X008 (ip), vehicle: other
  T/C: 107 % of control
dose: 60.0 mg/kg/injection, schedule: Q## X016 (ip), vehicle: other
  T/C: 109 % of control
dose: 60.0 mg/kg/injection, schedule: Q## X024 (ip), vehicle: other
  T/C: 114 % of control
dose: 62.5 mg/kg/injection, schedule: Q01DX009 (ip), vehicle: saline
  T/C: 106 % of control and 112 % of control
dose: 62.5 mg/kg/injection, schedule: Q01DX010 (ip), vehicle: saline
  T/C: 107 % of control and 108 % of control
dose: 75.0 mg/kg/injection, schedule: Q01DX001 (ip), vehicle: other
  T/C: 102 % of control
dose: 75.0 mg/kg/injection, schedule: Q01DX001 (sc), vehicle: other
  T/C: 113 % of control
dose: 75.0 mg/kg/injection, schedule: Q## X002 (ip), vehicle: other
  T/C: 98 % of control
dose: 75.0 mg/kg/injection, schedule: Q## X003 (ip), vehicle: other
  T/C: 100 % of control
dose: 120.0 mg/kg/injection, schedule: Q01DX009 (oral), vehicle: other
  T/C: 151 % of control
dose: 120.0 mg/kg/injection, schedule: Q## X008 (ip), vehicle: other
  T/C: 117 % of control
dose: 125.0 mg/kg/injection, schedule: Q01DX010 (ip), vehicle: saline
  T/C: 122 % of control
dose: 150.0 mg/kg/injection, schedule: Q01DX001 (ip), vehicle: other
  T/C: 108 % of control
dose: 150.0 mg/kg/injection, schedule: Q01DX001 (oral), vehicle: other
  T/C: 117 % of control
dose: 150.0 mg/kg/injection, schedule: Q01DX001 (sc), vehicle: other
  T/C: 117 % of control
dose: 150.0 mg/kg/injection, schedule: Q## X002 (ip), vehicle: other
  T/C: 101 % of control
dose: 240.0 mg/kg/injection, schedule: Q## X016 (ip), vehicle: other
  T/C: 152 % of control
dose: 240.0 mg/kg/injection, schedule: Q## X024 (ip), vehicle: other
  T/C: 165 % of control
dose: 250.0 mg/kg/injection, schedule: Q01DX009 (ip), vehicle: saline
  T/C: 110 % of control and 124 % of control
dose: 300.0 mg/kg/injection, schedule: Q01DX001 (oral), vehicle: other
  T/C: 119 % of control
dose: 300.0 mg/kg/injection, schedule: Q## X003 (ip), vehicle: other
  T/C: 162 % of control
dose: 480.0 mg/kg/injection, schedule: Q## X008 (ip), vehicle: other
  T/C: 157 % of control
dose: 480.0 mg/kg/injection, schedule: Q## X016 (ip), vehicle: other
  T/C: 153 % of control
dose: 600.0 mg/kg/injection, schedule: Q01DX001 (oral), vehicle: other
  T/C: 123 % of control
dose: 600.0 mg/kg/injection, schedule: Q01DX001 (sc), vehicle: other
  T/C: 121 % of control

## COc1ccc(NCc2ccccc2O)cc1
dose: 100.0 mg/kg/injection, schedule: Q01DX001 (ip), vehicle: other
  T/C: 95 % of control
dose: 200.0 mg/kg/injection, schedule: Q01DX001 (ip), vehicle: other
  T/C: 87 % of control
dose: 400.0 mg/kg/injection, schedule: Q01DX001 (ip), vehicle: other
  T/C: 93 % of control

## CCCCCCCNC1=C(c2ccccc2)C(=O)C(NCCCCCCC)=C(c2ccccc2)C1=O
[1]
  T/C: 94 % of control
[2]
  T/C: 96 % of control
[3]
  T/C: 91 % of control

## CC(=O)CSc1ccccn1
[1]
  T/C: 102 % of control
[2]
  T/C: 94 % of control
[3]
  T/C: 96 % of control

## CC(=O)OCC1OC(OC(C)=O)C(NC(=O)N(C)C(C)=O)C(OC(C)=O)C1OC(C)=O (centres undefined)
[4]
  T/C: 100 % of control
[5]
  T/C: 100 % of control
[6]
  T/C: 97 % of control

## C=C1C(=O)OC2CCC3OC3CCC12 (centres undefined) (tested in a mixture with another compound)
[7]
  T/C: 103 % of control
[8]
  T/C: 95 % of control

## CCCCOc1ccc(N)cn1
dose: 25.0 mg/kg/injection, schedule: Q01DX009 (ip), vehicle: saline
  T/C: 95 % of control
dose: 50.0 mg/kg/injection, schedule: Q01DX009 (ip), vehicle: saline
  T/C: 95 % of control
dose: 100.0 mg/kg/injection, schedule: Q01DX009 (ip), vehicle: saline
  T/C: 113 % of control
[7]
  T/C: 96 % of control

## O=C(CNC(=O)Nc1cccc(Cl)c1)N/N=C/c1cccc([N+](=O)[O-])c1
dose: 50.0 mg/kg/injection, schedule: Q01DX009 (ip), vehicle: saline with Tween-80
  T/C: 98 % of control
[9]
  T/C: 95 % of control
[10]
  T/C: 98 % of control

## CCCCCCCC(=O)NCCCC
dose: 100.0 mg/kg/injection, schedule: Q01DX009 (ip), vehicle: Klucel (hydroxypropylcellulose) (HPC)
  T/C: 105 % of control
[7]
  T/C: 99 % of control
dose: 200.0 mg/kg/injection, schedule: Q01DX009 (ip), vehicle: Klucel (hydroxypropylcellulose) (HPC)
  T/C: 95 % of control
[8]
  T/C: 101 % of control
dose: 400.0 mg/kg/injection, schedule: Q01DX009 (ip), vehicle: Klucel (hydroxypropylcellulose) (HPC)
  T/C: 109 % of control
dose: 400.0 mg/kg/injection, schedule: Q04DX003 (ip), vehicle: saline
  T/C: 99 % of control

## Cc1ccc2c(ccc(C)[n+]2C)c1
dose: 37.5 mg/kg/injection, schedule: Q01DX009 (ip), vehicle: acetone
  T/C: 117 % of control
dose: 37.5 mg/kg/injection, schedule: Q01DX009 (ip), vehicle: saline
  T/C: 110 % of control and 112 % of control
dose: 75.0 mg/kg/injection, schedule: Q01DX001 (ip), vehicle: saline
  T/C: 100 % of control
dose: 75.0 mg/kg/injection, schedule: Q01DX009 (ip), vehicle: saline
  T/C: 118 % of control and 121 % of control
dose: 150.0 mg/kg/injection, schedule: Q01DX001 (ip), vehicle: saline
  T/C: 108 % of control
dose: 150.0 mg/kg/injection, schedule: Q01DX009 (ip), vehicle: acetone
  T/C: 102 % of control
dose: 300.0 mg/kg/injection, schedule: Q01DX001 (ip), vehicle: saline
  T/C: 105 % of control

## O=C(O)CCCc1ccc([N+](=O)[O-])cc1Cl
[9]
  T/C: 103 % of control
[10]
  T/C: 105 % of control

## Cc1cc(=O)[nH]n1-c1ccc([N+](=O)[O-])cc1
[4]
  T/C: 94 % of control
[5]
  T/C: 97 % of control
[6]
  T/C: 89 % of control

## CCOC(=O)/C=C/SCCCC(=O)O
[9]
  T/C: 96 % of control
[10]
  T/C: 88 % of control
